Measurements published in PubChem BioAssay (NCI).
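Method: 48-hour compound exposure of cells in 96-well plates, five concentrations, linear interpolation of endpoints. Here, GI50 denotes the concentration required for 50% inhibition of growth. At the TGI there is no net growth.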

Legend:
Test in all cases: NCI anticancer screen, dose series, 48 h
SN12C renal = tested on: SN12C renal
CAKI-1 renal = tested on: CAKI-1 renal
OVCAR-3 ovarian = tested on: OVCAR-3 ovarian
NCI-H460 lung = tested on: NCI-H460 lung
UACC-257 melanoma = tested on: UACC-257 melanoma
LOX IMVI melanoma = tested on: LOX IMVI melanoma
U251 CNS = tested on: U251 CNS
SF-539 CNS = tested on: SF-539 CNS
UACC-62 melanoma = tested on: UACC-62 melanoma
RXF 393 renal = tested on: RXF 393 renal

Row | SMILES | GI50 (SN12C renal) | TGI (SN12C renal) | GI50 (CAKI-1 renal) | TGI (CAKI-1 renal) | GI50 (OVCAR-3 ovarian) | TGI (OVCAR-3 ovarian) | GI50 (NCI-H460 lung) | TGI (NCI-H460 lung) | GI50 (UACC-257 melanoma) | TGI (UACC-257 melanoma) | GI50 (LOX IMVI melanoma) | TGI (LOX IMVI melanoma) | GI50 (U251 CNS) | TGI (U251 CNS) | GI50 (SF-539 CNS) | TGI (SF-539 CNS) | GI50 (UACC-62 melanoma) | TGI (UACC-62 melanoma) | TGI (RXF 393 renal) | GI50 (RXF 393 renal)
1 | N=C(N)c1ccc(-c2ccc(-c3cc(Cl)cc(Cl)c3)o2)nc1 | 1.62 µM | 3.16 µM | 1.76 µM | 3.35 µM | 1.88 µM | 3.39 µM | 1.9 µM | 3.63 µM | 1.84 µM | 3.59 µM | 1.77 µM | 3.41 µM | 1.76 µM | 3.31 µM | 1.76 µM | 3.25 µM | 1.78 µM | 3.36 µM | – | –
2 | O=C(N/N=C(/c1ccccc1)C(F)(F)F)c1ccncc1 | – | > 100 µM | – | > 100 µM | – | > 100 µM | – | > 100 µM | – | – | – | – | – | > 100 µM | – | – | – | > 100 µM | > 100 µM | –
3 | CCCc1[nH]c(SCCCCCCCCSc2nc(-c3ccc(F)cc3)c(CCC)[nH]2)nc1-c1ccc(F)cc1 | – | > 100 µM | – | – | – | 12.9 µM | – | > 100 µM | – | > 100 µM | – | > 100 µM | – | > 100 µM | – | 27.7 µM | – | > 100 µM | > 100 µM | –
4 | CC1SC(c2ccccc2)N(CCc2cccs2)C1=O (stereo unspecified) | 5.43 µM | 20.1 µM | 3.15 µM | 16.2 µM | 3.03 µM | 13.3 µM | 3.55 µM | 14.7 µM | 4.73 µM | 14.5 µM | 2.9 µM | 13.7 µM | 3.95 µM | 14.5 µM | 5.14 µM | 19.2 µM | 3.42 µM | 18.8 µM | 20.4 µM | 6.76 µM
5 | COc1ccc(/C(=C2/O[C@@H]([C@H]3COC(C)(C)O3)[C@H]3OC(C)(C)O[C@@H]23)c2cc(OC)c(OC)c(OC)c2)cc1O | 8.9 µM | > 100 µM | 14.8 µM | 42.2 µM | 4.84 µM | 43.3 µM | 29.3 µM | > 100 µM | 39.4 µM | > 100 µM | 5.93 µM | 22.8 µM | 5 µM | 43.1 µM | 3.15 µM | 8.75 µM | 22.9 µM | 57.6 µM | 5.07 µM | 2.35 µM
6 | CN(C)CC(=O)Nc1ccc(Cn2nnc3c2C(=O)c2nnn(Cc4ccc(NC(=O)CN(C)C)cc4)c2C3=O)cc1 | – | – | 2.59 µM | > 100 µM | 0.0318 µM | 0.132 µM | 0.167 µM | 1.2 µM | 0.172 µM | 0.339 µM | – | – | 0.183 µM | 0.361 µM | 0.197 µM | 0.502 µM | 0.201 µM | 0.432 µM | – | –
7 | CCOC(=O)CSc1nc(N)c2c(-c3ccc(OC)c(OC)c3)c3c(nc2n1)CCCC3 | – | > 100 µM | – | > 100 µM | – | > 100 µM | – | > 100 µM | – | > 100 µM | – | > 100 µM | – | > 100 µM | – | – | – | > 100 µM | > 100 µM | –
8 | Cc1cccc2nc3c(C(=O)NCCN(C)C)cccc3cc12 | – | 5.98 µM | – | 8.49 µM | – | 7.5 µM | – | 4.18 µM | – | 3.44 µM | – | 4.76 µM | – | 8.63 µM | – | 4.84 µM | – | 3.38 µM | 4.13 µM | –
9 | CCN(CC)CC(C)Nc1ccc([N+](=O)[O-])c2sc3ccccc3c(=O)c12 (stereo unspecified) | 1.93 µM | 23.5 µM | 0.657 µM | 4.09 µM | 2.88 µM | 11.5 µM | 0.401 µM | 2.14 µM | 1.68 µM | 4.15 µM | 1.02 µM | 2.39 µM | 1.46 µM | 10.7 µM | 2 µM | 7.56 µM | 1.09 µM | 2.52 µM | 5.71 µM | 1.65 µM
10 | CNC(=O)OC(C)CN1c2ccccc2Sc2ccc(Cl)cc21 (stereo unspecified) | – | > 10 µM | – | > 10 µM | – | > 10 µM | – | > 10 µM | – | – | – | > 10 µM | – | > 10 µM | – | > 10 µM | – | > 10 µM | > 10 µM | –
11 | CCS(=O)(=O)Nc1ccc(Nc2c3ccccc3nc3ccccc23)c(OC)c1 | – | 3.86 µM | – | 4.08 µM | – | 6.05 µM | – | 1.19 µM | – | 16.9 µM | – | 4.26 µM | – | 2.43 µM | – | 4.38 µM | – | 4.02 µM | 9.6 µM | –
